In patent publication US8962681B2, “Use of aminoacetonitrile derivatives against endoparasites” (Zoetis LLC, priority 2011, dated 2015):

Key:
[1] = tested on: Dirofilaria immitis microfilariae; experiment: in vitro microwell motility assay against heartworm microfilariae; assay type: cell-based; settings: microfilaria from canine blood, 384 well plate, 72 hours incubation at 37° C. and 5% CO2, LemnaTec Scanalyzer
[2] = tested on: L4 stage larvae of D. immitis; experiment: L4 stage larvae motility/kill assay; assay type: cell-based, Dirofilaria immitis; settings: screened at 10 μM in duplicate, 96-well plate; motility observed at 4, 24, 48 and 72 hours; endpoint defined as ED80 (80% of larvae killed)

Row | SMILES | ED50 (dose at which the overall microfilaria motility was reduced by 50% compared to that of an untreated control) [1] [µM] | active against L4 D. immitis at 10 μM [2]
1 | CC(C#N)(COc1ccccc1Cl)NC(=O)c1ccc(S(F)(F)(F)(F)F)cc1 (centres unmarked) [test compound 16, N-[2-(2-chlorophenoxy)-1-cyano-1-methylethyl]-4-(pentafluorothio)benzamide] | 33 | active
2 | CC(C#N)(COc1ccccc1C(F)(F)F)NC(=O)c1ccc(S(F)(F)(F)(F)F)cc1 (centres unmarked) [test compound 14, N-{1-cyano-1-methyl-2-[2-(trifluoromethyl)phenoxy]ethyl}-4-(pentafluorothio)-benzamide] | 10 | active
3 | CC(C#N)(COc1ccc(F)cc1Cl)NC(=O)c1ccc(S(F)(F)(F)(F)F)cc1 (centres unmarked) [test compound 18, N-[2-(2-chloro-4-fluorophenoxy)-1-cyano-1-methylethyl]-4-(pentafluorothio)-benzamide] | 33 | active
4 | COc1ccc(OCC(C)(C#N)NC(=O)c2ccc(S(F)(F)(F)(F)F)cc2)c(C(F)(F)F)c1 (centres unmarked) [test compound 42, N-{1-cyano-2-[4-methoxy-2-(trifluoromethyl)phenoxy]-1-methylethyl}-4-(pentafluorothio)benzamide] | 33 | active
